# Test results: patent publication US8895504B2, “Amylin derivatives” (priority 2008, dated 2014)
# *1 amine or outer side, *2 acyl side, *3 side chain or, on linkers, in order; H or OH if unused. Where a SMILES comes first, the peptide text is derived from it. Bridges are numbered along the chain shown (N, C = ends). The star is where a group is joined. C20 diacid = O=C(O)CCCCCCCCCCCCCCCCCCC(=O)*; γGlu = O=C(O)[C@H](CCC(=O)[*:2])N[*:1]
# Columns and labels:
# [1] = molecular target: T1, Amylin 3(a) receptor (human calcitonin receptor (CTa) and RAMP-3) (Homo sapiens, UniProt O60896+P30988); experiment: Luciferase assay (III), BHK Amylin 3(a)//CRE-luc cells; type: cell-based; details: BHK cells with Amylin 3(a) receptor and CRE luciferase reporter, 4 hours incubation; read-out: Potency Luciferase
# T1 construct: expressed in transfected cells; host or cells: BHK570 cells, stably transfected with a CRE-luciferase reporter
# Procedure, shortened: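 Read-out is CRE-driven luciferase luminescence, taken 30 min after LucLite addition at room temperature. Compounds were incubated 4 h at 37° C in assay medium (10% FBS, 10 mM Hepes, pH 7,4). The cell line is BHK570 co-transfected with human calcitonin receptor CTa and RAMP-3, seeded overnight before use.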
# [2] = Assay (V) PK - determination of T½ in mini-pig; type: in vivo; details: minipig, sc; terminal plasma half-life, subcutaneous, approx 2 nmol/kg, male Göttingen mini-pigs
# Procedure, shortened: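 Male Göttingen mini-pigs (5–12 months, 7–35 kg) got a single s.c. neck injection of approx 2 nmol/kg; plasma sampled via central venous catheter predose to 240 h (some to 288 h). Amylin measured by sandwich ELISA; T½ = ln 2/λz from non-compartmental analysis of individual profiles.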
# [3] = Assay (VI) PK - determination of T½ in rat; type: in vivo; details: sc, terminal plasma half-life, subcutaneous, approx 20 nmol/kg, male Sprague Dawley rats
# Method: Assay (VI) PK—Determination OF T½ in Rat
# T½ is the terminal half-life=ln 2/λz of a compound in plasma. λz is the first order rate constant associated with the terminal (log-linear) portion of the plasma concentration-time curve and is estimated by linear regression of time vs. log concentration.
# T½ values of the amylin analogues of the invention is determined by pharmacokinetic studies in Sprague Dawley male rats, from Taconic Europe and the principles of laboratory animal care are followed.
# An acclimatization period of approximately 7 days was allowed before the animals entered the study. At start of the acclimatization period the rats were in the weight range of 300-400 g. The rats had permanent catheters inserted in a. carotis which were used for blood sampling.
# The studies were conducted in an animal room which was illuminated to give a cycle of approx 12 hours light and 12 hours darkness. The animals were housed individually due to the catheters and had food and water ad lib. The animals were weighed on the days of dosing.
# In the present studies the test substances were administered subcutaneously in approx 20 nmol/kg dose. The animals received a single subcutaneous injection to the neck using a 25 G needle with syringe. Each test substance was given to typically three but in some cases two or four animals.
# A full plasma concentration-time profile, employing 8-10 sampling points, was obtained from each animal. In example blood samples were collected according to the following schedule:
# After subcutaneous administration:
# Predose (0), 0.5, 1, 1.5, 2, 4, 6, 12, 24, 48 and 72 hours after injection. At each sampling time, 0.08 to 0.10 ml of blood was drawn from each animal. The blood samples were taken via the catheter.
# The blood samples were collected into EDTA test tubes. Blood samples were kept on ice for max 20 min. before centrifugation. Plasma was separated using centrifugation (i.e. at 4° C., 10 min., 1500 G) and was immediately transferred to Micronic tubes or PCR plates. Approximately 40 μl plasma was transferred and was stored at −20° C. until assayed. The plasma samples were assayed for the content of amylin using an ELISA assay.
# The plasma concentration-time profiles were analysed by a non-compartmental pharmacokinetic analysis (NCA) using WinNonlin Professional 5.0 (Pharsight Inc., Mountain View, Calif., USA). NCA was performed using the individual plasma concentration-time profiles from each animal. T½ is the terminal half-life=ln 2/λz and was determined from λz, the first order rate constant associated with the terminal (log-linear) portion of the curve, estimated by linear regression of time vs. log concentration.
# ELISA Plasma Assay for Amylin Quantification
# The human amylin ELISA is a monoclonal antibody-based sandwich immunoassay for determining amylin levels in human plasma. The capture antibody recognizes human amylin, amylin acid (deamidated amylin), a 1-20 fragment of amylin, but not reduced amylin. The detection antibody binds to reduced or unreduced human amylin but not amylin acid and is complexed with streptavidin-alkaline phosphatase. The substrate, 4-methylumbelliferyl phosphate, is applied to the completed sandwich and the fluorescent signal, monitored at 355 nm/460 nm, is proportional to the amount of amylin present in the sample.
# T1 sequence (O60896 24-148): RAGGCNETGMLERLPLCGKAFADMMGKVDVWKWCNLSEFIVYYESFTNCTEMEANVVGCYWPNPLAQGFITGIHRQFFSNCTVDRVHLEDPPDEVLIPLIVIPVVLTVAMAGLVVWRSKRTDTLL
# T1 sequence (P30988 25-474): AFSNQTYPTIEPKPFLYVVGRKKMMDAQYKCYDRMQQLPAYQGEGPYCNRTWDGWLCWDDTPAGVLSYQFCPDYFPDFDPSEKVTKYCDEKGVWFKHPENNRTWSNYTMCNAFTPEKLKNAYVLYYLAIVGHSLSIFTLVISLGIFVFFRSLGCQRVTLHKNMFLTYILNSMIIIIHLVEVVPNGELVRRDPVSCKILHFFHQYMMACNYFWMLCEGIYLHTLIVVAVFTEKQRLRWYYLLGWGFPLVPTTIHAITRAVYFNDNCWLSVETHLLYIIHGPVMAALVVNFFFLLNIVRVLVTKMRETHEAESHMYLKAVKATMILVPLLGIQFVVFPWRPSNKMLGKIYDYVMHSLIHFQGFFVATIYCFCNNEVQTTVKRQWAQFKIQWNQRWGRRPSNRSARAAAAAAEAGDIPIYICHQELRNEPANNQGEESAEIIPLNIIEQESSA
EC50 [1] [nM],half-life [2] [h],half-life [3] [h],Structure (SMILES)
0.1,41,10,"CC[C@H](C)[C@H](NC(=O)[C@@H]1CCCN1C(=O)CNC(=O)[C@H](Cc1ccccc1)NC(=O)[C@H](CC(N)=O)NC(=O)[C@H](CC(N)=O)NC(=O)[C@H](CO)NC(=O)[C@H](CO)NC(=O)[C@H](Cc1c[nH]cn1)NC(=O)[C@H](CO)NC(=O)[C@H](CC(C)C)NC(=O)[C@H](Cc1ccccc1)NC(=O)[C@H](CC(N)=O)NC(=O)[C@H](C)NC(=O)[C@H](CC(C)C)NC(=O)[C@H](CCCNC(=N)N)NC(=O)[C@H](CCC(N)=O)NC(=O)[C@@H](NC(=O)[C@H](C)NC(=O)[C@@H]1CSSC[C@H](NC(=O)[C@H](CCCCN)NC(=O)[C@H](CCCNC(=N)N)NC(=O)CC[C@H](NC(=O)CCCCCCCCCCCCCCCCCCC(=O)O)C(=O)O)C(=O)N[C@@H](CC(N)=O)C(=O)N[C@@H]([C@@H](C)O)C(=O)N[C@@H](C)C(=O)N[C@@H]([C@@H](C)O)C(=O)N1)[C@@H](C)O)C(=O)N[C@@H](CC(C)C)C(=O)N1CCC[C@H]1C(=O)N1CCC[C@H]1C(=O)N[C@H](C(=O)N[C@@H](CC(N)=O)C(=O)N[C@H](C(=O)NCC(=O)N[C@@H](CO)C(=O)N[C@@H](CC(N)=O)C(=O)N[C@H](C(=O)N[C@@H](Cc1ccc(O)cc1)C(N)=O)[C@@H](C)O)C(C)C)[C@@H](C)O [Example 20, N-alpha-[(S)-4-Carboxy-4-(19-carboxynonadecanoylamino)butyryl]-Arg-[Ser17]-pramlintide] ({C20 diacid-γGlu}-RKCNTATCATQRLANFLSHSSNNFGPILPPTNVGSNTY-NH2; disulfide 3-8)"
0.1,34,13,"CC[C@H](C)[C@H](NC(=O)[C@@H]1CCCN1C(=O)CNC(=O)[C@H](Cc1ccccc1)NC(=O)[C@H](CC(N)=O)NC(=O)[C@H](CC(N)=O)NC(=O)[C@H](CO)NC(=O)[C@H](CO)NC(=O)[C@H](Cc1c[nH]cn1)NC(=O)[C@H](CCCNC(=N)N)NC(=O)[C@H](CC(C)C)NC(=O)[C@H](Cc1ccccc1)NC(=O)[C@H](CC(N)=O)NC(=O)[C@H](C)NC(=O)[C@H](CC(C)C)NC(=O)[C@H](CCCNC(=N)N)NC(=O)[C@H](CCC(N)=O)NC(=O)[C@@H](NC(=O)[C@H](C)NC(=O)[C@@H]1CSSC[C@H](NC(=O)[C@H](CCCCN)NC(=O)[C@H](CCCNC(=N)N)NC(=O)CC[C@H](NC(=O)CCCCCCCCCCCCCCCCCCC(=O)O)C(=O)O)C(=O)N[C@@H](CC(N)=O)C(=O)N[C@@H]([C@@H](C)O)C(=O)N[C@@H](C)C(=O)N[C@@H]([C@@H](C)O)C(=O)N1)[C@@H](C)O)C(=O)N[C@@H](CC(C)C)C(=O)N1CCC[C@H]1C(=O)N1CCC[C@H]1C(=O)N[C@H](C(=O)N[C@@H](CC(N)=O)C(=O)N[C@H](C(=O)NCC(=O)N[C@@H](CO)C(=O)N[C@@H](CC(N)=O)C(=O)N[C@H](C(=O)N[C@@H](Cc1ccc(O)cc1)C(N)=O)[C@@H](C)O)C(C)C)[C@@H](C)O [Example 22, N-alpha-[(S)-4-Carboxy-4-(19-carboxynonadecanoylamino)butyryl]-Arg-[Arg17]-pramlintide] ({C20 diacid-γGlu}-RKCNTATCATQRLANFLRHSSNNFGPILPPTNVGSNTY-NH2; disulfide 3-8)"
